A short description of data set [1]: Pharmacokinetics in female CD1 mice (oral / intravenous). The data set is classed as in vivo. To be noted: mouse; for AUC ng/ml*h (normalized to 1 mp/k) / Cmax ng/mL (normalized to 1 mg/k): normalized to 1 mg/kg; for Fz: oral. The method, then:
Female CD1 mice (N=3) received a single oral (gavage) or a single intravenous (bolus) injection of compound. […] Consecutive blood samples were taken sub-lingually under isofluorane inhalation from animals after 0.083 (IV), 0.25, 0.5, 1, 2, 4, 6 and 24 h and were further processed to obtain plasma. Samples were protein precipitated and analysed by LC/MS/MS.

In data set [2] the test system is HPAF-2 xenografts. To be noted: 50 mg/kg compound 23B or 60 mg/kg RMC-4550 QD oral gavage, CB17.SCID mice.
Data set [3] deals with pERK1/2 in KYSE520 cells. Kind of data set: p-Erk cellular assay in KYSE520 (Mesoscale). Conditions: Homo sapiens, KYSE-520, 2 h, read-out: pERK1/2 in Cell KYSE520 IC50. The data set is classed as cell-based. The method, then:
The effect of SHP2 inhibitors on pERK level was assessed using phospho-specific antibody using Mesoscale quantification platform. For measuring change in pERK levels using mesoscale, 30,000 cells of KYSE520 cells were plated in 96-well tissue culture treated plate in 175 μl volume of media. After an overnight incubation at 37° C., various SHP2 inhibitors were added in different concentration to each well maintaining duplicate wells across plates and incubated with compounds for 2 h at 37° C. followed by a wash with ice cold PBS buffer. The cells were then lysed in lysis buffer and processed and analyzed for p-ERK/ERK as per manufacturer's instructions (Mesoscale discovery, cat No. […]-3).

Data set [4] addresses Full length SHP2 protein (Recombinant Human SHP-2) (Homo sapiens (Human), UniProt Q06124). Put plainly: SHP2 biochemical assay (DiFMUP substrate, activating peptide IRS1_2pY). Conditions: activating peptide IRS1_2pY 140 nM, 60 min.
Method: The inhibition of SHP2 by compounds of the invention was monitored using the surrogate substrate DiFMUP after protein activation by a peptide bearing two appropriately spaced phosphotyrosine. […] The generation of the DiFMU product by activated SHP2 was monitored through Fluorescence measurement with a PerkinElmer Envision reader. The inhibitor dose response curves were analyzed with Genedata Screener.
The target of data set [5] is Kv11.1 (hERG) ion channel (Homo sapiens (Human), UniProt Q12809). Put plainly: hERG patch clamp in Kv11.1 (hERG) transfected HEK293 cells. It is filed as cell-based. The method, then:
Inhibition of the ion channel hErg (or Kv11.1) current causes QT interval prolongation resulting in potentially fatal ventricular tachyarrhythmia called Torsade de Pointes.
hERG ion channel activity was assessed using a patch clamp technique in stable Kv11.1 (hERG) transfected human embryonic kidney cell line (HEK293). Whole cell recordings were carried out with an automated patch clamp device Patchliner™ from Nanion Technologies, Munich following manufacturer recommendation. Different concentrations of the test compound or reference, quinidine, were applied to whole cells suspension and current was measured using a pulse pattern with fixed amplitudes.
A general note: Block of hERG is tested as a sign of cardiac risk.

The test system of data set [6] is KYSE-520 xenografts. Put plainly: Kyse-520 xenograft (EGFR amplified esophageal cancer). To be noted: H2D Rag2 mice. From the text: H2D Rag2 mice were inoculated with 5 million KYSE-520 cells mixed with matrigel.
In vivo efficacy of compound 74a in an EGFR amplified setting was investigated in Kyse-520 xenografts. H2D Rag2 mice were inoculated with 5 million KYSE-520 cells mixed with matrigel.

Data set [7] concerns the target auto-activated mutant protein SHP2 E76K (Homo sapiens (Human), UniProt Q06124, E76K). Put plainly: SHP2 E76K active mutant biochemical assay with and without activating peptide.
Method: The inhibition of SHP2 by compounds of the invention was monitored using the surrogate substrate DiFMUP after protein activation by a peptide bearing two appropriately spaced phosphotyrosine. Full length SHP2 protein (Recombinant HumanSHP-2, E. coli derived Ser2Arg593, N-terminal 6His tag from R&D systems; 0.0.24 nM) was incubated with activating peptide, IRSI_2pY (New England Peptide, 140 nM) and DiFMUP (molecular probes, 80 uM) at RT in buffer (HEPES pH 7.2 60 mM, DDT 5 mM, KCl 75 mM, NaCl 75 mM, EDTA 1 mM, Tween 20 0.05%) in presence of compound (10 concentrations range, top concentration 50 μM) for 60 min. The generation of the DiFMU product by activated SHP2 was monitored through Fluorescence measurement with a PerkinElmer Envision reader. The inhibitor dose response curves were analyzed with Genedata Screener.
The subject of data set [8] is EBC-1 xenografts. Put plainly: EBC-1 xenograft (cMET amplified non-small cell lung cancer). Conditions: 100 mg/kg QD oral gavage, CD-1 nude mice. The data set is classed as in vivo. From the text:
CD-1 nude mice were inoculated with 5 million EBC-1 cells.

Data set [9] deals with MiaPaCa-2 xenografts. It is filed as in vivo, mouse. Conditions: 50 or 100 mg/kg QD oral gavage, H2D Rag2 mice. From the text: H2D Rag2 mice were inoculated with 3 million MiaPaCa-2 cells.
Data set [10] deals with U87-MG xenografts. Put plainly: U87-MG xenograft (PTEN LOF glioblastoma). It is filed as in vivo, mouse. Conditions: 50 mg/kg QD oral gavage, CD-1 nude mice. The text has this: CD-1 nude mice were inoculated with 10 million U87-MG cells.
Data set [11] concerns MCP-1 production in U937 cells. Put plainly: Cytokine release assay: MCP-1 production in U937 cells stimulated with IL-6. The data set is classed as cell-based. How it is done: Selected compounds were tested in a cytokine release assay in monocytic cells (U937) to test their anti-inflammatory properties. Cells were plated in a 96-well cell culture plate using serum-free media. The cells were treated with indicated concentrations of SHP-2 inhibitors for 30 minutes followed by overnight stimulation with recombinant IL-6 (50 ng/mL). The MCP-1 production was measured in the culture supernatant using a MCP-1 AlphaLISA kit (Perkin Elmer).

Setting [12] is: 0.8, 2.5 or 8 mg/kg QD oral gavage.
The mark [13] stands for this setting: 10, 30 or 100 mg/kg QD oral gavage.

Entries after “also recorded” stand apart in the source; their conditions may differ.

Full length SHP2 protein (Recombinant Human SHP-2), sequence (Q06124 2-593): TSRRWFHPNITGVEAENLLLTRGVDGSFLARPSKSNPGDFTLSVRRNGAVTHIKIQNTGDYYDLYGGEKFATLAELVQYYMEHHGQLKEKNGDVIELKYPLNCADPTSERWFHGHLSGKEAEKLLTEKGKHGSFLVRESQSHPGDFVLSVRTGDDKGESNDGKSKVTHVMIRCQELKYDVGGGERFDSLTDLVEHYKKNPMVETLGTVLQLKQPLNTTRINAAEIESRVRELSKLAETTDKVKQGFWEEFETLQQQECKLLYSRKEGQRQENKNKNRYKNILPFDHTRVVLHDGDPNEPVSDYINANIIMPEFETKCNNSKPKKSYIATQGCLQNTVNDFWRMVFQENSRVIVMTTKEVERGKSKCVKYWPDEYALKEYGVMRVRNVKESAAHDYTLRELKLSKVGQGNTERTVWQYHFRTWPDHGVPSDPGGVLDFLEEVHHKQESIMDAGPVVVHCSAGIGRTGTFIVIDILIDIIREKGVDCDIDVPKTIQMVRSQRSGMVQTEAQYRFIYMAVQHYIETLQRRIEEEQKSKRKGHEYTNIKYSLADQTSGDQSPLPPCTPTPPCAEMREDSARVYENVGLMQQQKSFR
auto-activated mutant protein SHP2 E76K, sequence (Q06124 whole entry E76K): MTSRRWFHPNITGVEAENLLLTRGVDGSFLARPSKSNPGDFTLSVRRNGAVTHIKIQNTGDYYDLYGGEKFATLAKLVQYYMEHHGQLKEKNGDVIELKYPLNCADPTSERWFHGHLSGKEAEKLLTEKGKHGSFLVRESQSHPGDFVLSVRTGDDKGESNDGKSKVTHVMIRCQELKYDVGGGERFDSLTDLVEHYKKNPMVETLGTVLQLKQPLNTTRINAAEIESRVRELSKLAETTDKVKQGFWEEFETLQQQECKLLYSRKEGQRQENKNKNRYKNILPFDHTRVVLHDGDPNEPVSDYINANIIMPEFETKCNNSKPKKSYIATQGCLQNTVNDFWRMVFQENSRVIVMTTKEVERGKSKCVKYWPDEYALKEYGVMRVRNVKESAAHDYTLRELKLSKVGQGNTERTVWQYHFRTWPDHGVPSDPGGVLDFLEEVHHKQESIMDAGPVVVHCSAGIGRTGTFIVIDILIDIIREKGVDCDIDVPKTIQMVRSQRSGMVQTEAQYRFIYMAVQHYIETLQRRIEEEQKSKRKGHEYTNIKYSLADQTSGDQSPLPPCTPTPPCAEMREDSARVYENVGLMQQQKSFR
Kv11.1 (hERG) ion channel, sequence (Q12809 whole entry): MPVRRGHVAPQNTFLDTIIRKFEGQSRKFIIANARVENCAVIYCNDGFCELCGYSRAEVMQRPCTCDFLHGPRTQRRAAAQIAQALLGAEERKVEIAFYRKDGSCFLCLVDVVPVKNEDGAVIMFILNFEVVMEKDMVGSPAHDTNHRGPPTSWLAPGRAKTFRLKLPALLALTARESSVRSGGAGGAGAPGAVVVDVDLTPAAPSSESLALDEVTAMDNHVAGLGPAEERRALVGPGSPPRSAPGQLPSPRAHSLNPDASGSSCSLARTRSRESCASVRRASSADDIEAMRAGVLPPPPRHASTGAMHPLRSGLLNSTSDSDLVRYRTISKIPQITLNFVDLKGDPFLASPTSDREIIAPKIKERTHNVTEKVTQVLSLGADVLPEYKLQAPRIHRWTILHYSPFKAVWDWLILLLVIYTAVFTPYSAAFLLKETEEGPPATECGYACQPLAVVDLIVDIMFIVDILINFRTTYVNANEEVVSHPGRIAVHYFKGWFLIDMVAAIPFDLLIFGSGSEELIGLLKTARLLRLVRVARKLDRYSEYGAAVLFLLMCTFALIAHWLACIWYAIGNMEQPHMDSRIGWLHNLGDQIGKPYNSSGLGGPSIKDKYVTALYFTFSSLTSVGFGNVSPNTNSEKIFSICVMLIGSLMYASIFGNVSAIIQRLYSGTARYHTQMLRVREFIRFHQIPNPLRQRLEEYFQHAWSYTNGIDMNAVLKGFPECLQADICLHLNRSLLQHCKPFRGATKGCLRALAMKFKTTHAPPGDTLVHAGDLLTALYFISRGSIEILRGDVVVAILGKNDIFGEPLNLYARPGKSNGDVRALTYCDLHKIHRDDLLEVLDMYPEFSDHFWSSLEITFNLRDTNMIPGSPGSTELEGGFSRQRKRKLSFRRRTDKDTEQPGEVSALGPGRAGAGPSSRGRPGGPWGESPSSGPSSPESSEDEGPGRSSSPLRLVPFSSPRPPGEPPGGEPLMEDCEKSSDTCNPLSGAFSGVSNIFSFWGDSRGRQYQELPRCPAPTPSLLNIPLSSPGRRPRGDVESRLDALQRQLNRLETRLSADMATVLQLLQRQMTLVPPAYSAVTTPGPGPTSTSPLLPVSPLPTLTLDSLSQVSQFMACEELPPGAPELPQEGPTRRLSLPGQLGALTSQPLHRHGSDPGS

With `Cc1nc(N2CCC3(CC2)CO[C@@H](C)[C@H]3N)cc(=O)n1-c1cccc(Cl)c1Cl` (single isomer, unassigned) [Compound 3b], in data set [1], the “AUC ng/ml*h (normalized to 1 mp/k)” value was 1765 ng·h/mL, the “Cmax ng/mL (normalized to 1 mg/k)” value is given as 223 ng/mL and the Fz amounted to 85%.

Turning to `Cc1nc(N2CCC3(CC2)CO[C@@H](C)[C@H]3N)c(CO)nc1-c1cccc(Cl)c1Cl` [RMC-4550, reference compound], the tumor growth result in data set [2] is given as “Significant tumor inhibition”. Moreover, in data set [1], the “AUC ng/ml*h (normalized to 1 mp/k)” value came to 735 ng·h/mL, the “Cmax ng/mL (normalized to 1 mg/k)” value stood at 85 ng/mL and the Fz came to 86%.

As for `Cc1c(N2CCC3(CC2)Oc2cnccc2C3N)nc(C)n(-c2cccc(Cl)c2Cl)c1=O` (single isomer, unassigned) [Compound 80c], in data set [3], the IC50 came out at 420 nM.

With `Cc1c(N2C[C@H]3CC(CO)C[C@@]3(CN)C2)nc(C)n(-c2cccc(Cl)c2Cl)c1=O` (stereo partly drawn) [Compound 101, (3M)-6-[(3aR,6aS)-3a-(aminomethyl)-5-(hydroxymethyl)-octahydrocyclopenta[c]pyrrol-2-yl]-3-(2,3-dichlorophenyl)-2,5-dimethyl-3,4-dihydropyrimidin-4-one], the IC50 in [4] came to 230 nM.

Turning to `Cc1c(N2CCC3(CC2)Cc2ccccc2[C@@H]3N)nc(C)n(-c2cccc(Cl)c2Cl)c1=O` (atropisomer, axis not shown; (M)) [Compound 74c, (3M)-6-[(1R)-1-amino-1,3-dihydrospiro[indene-2,4′-piperidin]-1′-yl]-3-(2,3-dichlorophenyl)-2,5-dimethyl-3,4-dihydropyrimidin-4-one], in data set [4], the IC50 was found to be 250 nM.

On to `Cc1c(N2CCC3(CC2)Cc2ncccc2[C@H]3N)nc(C)n(-c2cccc(Cl)c2Cl)c1=O` (single isomer, unassigned) [Compound 66b], for which, in [1], the “AUC ng/ml*h (normalized to 1 mp/k)” value amounted to 2387 ng·h/mL, the “Cmax ng/mL (normalized to 1 mg/k)” value came out at 367 ng/mL and the Fz amounted to 100%. The “Split between hErg and cell activity Ki (patch Clamp)/IC50 (KYSE)” value in data set [5] came to 580.

Regarding `Cc1c(N2CCC3(CCC[C@H]3N)CC2)nc(C)n(-c2cccc(Cl)c2Cl)c1=O` (single isomer, unassigned) [Compound 67a], the IC50 in [4] stood at 19000 nM.

`C[C@@H]1OCC2(CCN(c3cc(=O)n(-c4cccc(Cl)c4Cl)c(C(F)F)n3)CC2)[C@@H]1N` (atropisomer, axis not shown; (M)) [Compound 20b, (3M)-6-[(3S,4S)-4-amino-3-methyl-2-oxa-8-azaspiro[4.5]decan-8-yl]-3-(2,3-dichlorophenyl)-2-(difluoromethyl)-3,4-dihydropyrimidin-4-one]: the IC50 in [4] came out at 1100 nM.

In the case of `Cc1c(N2CCC3(CC2)c2ncccc2C[C@H]3N)nc(C)n(-c2cccc(Cl)c2Cl)c1=O` [Compound 75, (3M)-6-[(6R)-6-amino-5,6-dihydrospiro[cyclopenta[b]pyridine-7,4′-piperidin]-1′-yl]-3-(2,3-dichlorophenyl)-2,5-dimethyl-3,4-dihydropyrimidin-4-one], the IC50 in data set [4] came out at 120 nM; in data set [3] it was 824 nM.

With `Cc1c(N2CCC3(CCC[C@H]3N)CC2)nc(C)n(-c2cccc(Cl)c2Cl)c1=O` (single isomer, unassigned) [Compound 67b], in data set [3], the IC50 stood at 198 nM.

`Cc1c(N2CCC3(CC2)Oc2ccccc2[C@H]3N)nc(C)n(-c2cccc(Cl)c2Cl)c1=O` (single isomer, unassigned) [Compound 81b]: in data set [1], the “AUC ng/ml*h (normalized to 1 mp/k)” value turned out to be 3270 ng·h/mL, the “Cmax ng/mL (normalized to 1 mg/k)” value turned out to be 450 ng/mL and the Fz stood at 48%.

For the compound `Cc1c(N2CCC3(CC2)Cc2ccccc2[C@H]3N)nc(C)n(-c2cccc(Cl)c2Cl)c1=O` [Compound 74a, (3M)-6-[(1S)-1-amino-1,3-dihydrospiro[indene-2,4′-piperidin]-1′-yl]-3-(2,3-dichlorophenyl)-2,5-dimethyl-3,4-dihydropyrimidin-4-one], in data set [4], the IC50 turned out to be 1 nM. Further, in data set [6] (setting [12]), the tolerability result was “well tolerated” and the tumor growth entry is on record as “reduce growth of the tumor a significant amount; also recorded: dose-dependent significant tumor growth inhibition”. In data set [1], the “AUC ng/ml*h (normalized to 1 mp/k)” value was 2108 ng·h/mL, the “Cmax ng/mL (normalized to 1 mg/k)” value worked out at 129 ng/mL and the Fz came to 100%.

For `Cc1c(N2CCC3(CCC[C@@H]3N)CC2)nc(N)n(-c2cccc(Cl)c2Cl)c1=O` (atropisomer, axis not shown; (M)) [Compound 78c, (3M)-2-amino-6-[(1S)-1-amino-8-azaspiro[4.5]decan-8-yl]-3-(2,3-dichlorophenyl)-5-methyl-3,4-dihydropyrimidin-4-one], the IC50 in [4] worked out at 2100 nM.

With `Cc1c(N2CCC3(CC2)CO[C@@H](C)[C@H]3N)nc(C)n(-c2cccc(Cl)c2Cl)c1=O` (single isomer, unassigned) [Compound 23b], the tolerability entry in [2], in data set [6] (setting [13]), in data set [8] and in [9] was “well tolerated” each time. The tumor growth entry is given as “Significant tumor inhibition” in data set [2], “reduce growth of the tumor a significant amount; also recorded: dose-dependent significant tumor growth inhibition” in [6] (setting [13]), “reduces tumor growth; also recorded: Significant tumor growth inhibition” in data set [8] and “reduces tumor size as compared to baseline; also recorded: Tumor regression” in data set [10]. Besides, in data set [7], the IC50 stood at 12 µM. Besides, the “AUC ng/ml*h (normalized to 1 mp/k)” value in [1] was 1222 ng·h/mL. In addition, the “Cmax ng/mL (normalized to 1 mg/k)” value in data set [1] is on record as 177 ng/mL. In addition, the Fz in data set [1] came out at 100%.

Regarding `Cc1c(N2CCC3(CC2)C[C@@H](C)C[C@H]3N)nc(C)n(-c2cccc(Cl)c2Cl)c1=O` [Compound 77, (3M)-6-[(1R,3R)-1-amino-3-methyl-8-azaspiro[4.5]decan-8-yl]-3-(2,3-dichlorophenyl)-2,5-dimethyl-3,4-dihydropyrimidin-4-one], in data set [11], the “MCP-1 production (FIG. 1)” value is recorded as “suppressed MCP-1 production”.

These data come from patent US11702392B2, “Pyrimidinone derivatives as SHP2 antagonists” (MERCK PATENT GMBH, priority 2019, dated 2023).
